In ChEMBL document CHEMBL1821612, “Discovery of novel antitubercular 3a,4-dihydro-3H-indeno[1,2-c]pyrazole-2-carboxamide/carbothioamide analogues” (Bioorg Med Chem Lett, 2011):
≈ marks a conversion by molar mass, not a printed value.

The compounds below were run on Mycobacterium tuberculosis (assay: Ratio of isoniazid MIC to compound MIC for isoniazid-resistant Mycobacterium tuberculosis). Conditions: not given.
Format: functional

Q: How did the Ratio turn out when COc1cc2c(cc1OC)C1=NN(C(N)=S)C(c3ccc(F)cc3)C1C2 (stereo unspecified) was run?
A: 2

The compounds below were run on Mycobacterium tuberculosis (assay: Antimycobacterial activity against isoniazid-resistant Mycobacterium tuberculosis after 2 weeks by BACTEC 460 radiometric method). Conditions: 336 h.
Format: functional

Q: COc1cc2c(cc1OC)C1=NN(C(=O)Nc3ccc(C)cc3C)C(c3ccncc3)C1C2 (stereo unspecified) was tested. Which MIC did it give?
A: > 12.5 µM

Q: How did the MIC turn out when COc1cc2c(cc1OC)C1=NN(C(=O)Nc3ccc(C)cc3C)C(c3ccccc3Cl)C1C2 (stereo unspecified) was run?
A: 10 µM (≈ 4.76 µg/mL)

Q: COc1cc2c(cc1OC)C1=NN(C(=O)Nc3ccc(C)cc3C)C(c3ccc(F)cc3)C1C2 (stereo unspecified) was tested. Which MIC did it give?
A: 12.5 µM (≈ 5.74 µg/mL)

Q: How did the MIC turn out when COc1ccc(C2C3Cc4cc(OC)c(OC)cc4C3=NN2C(=O)Nc2ccc(C)cc2C)cc1OC (stereo unspecified) was run?
A: > 12.5 µM

Q: Which MIC does the source give for COc1cc2c(cc1OC)C1=NN(C(=O)Nc3ccc(C)cc3C)C(c3ccccc3)C1C2 (stereo unspecified) here?
A: > 12.5 µM

Q: How did the MIC turn out when COc1ccc(C2C3Cc4cc(OC)c(OC)cc4C3=NN2C(=O)Nc2ccc(C)cc2C)cc1 (stereo unspecified) was run?
A: > 12.5 µM

Q: With COc1cc2c(cc1OC)C1=NN(C(=O)Nc3c(C)cccc3C)C(c3ccncc3)C1C2 (stereo unspecified) as the compound, how does the MIC read?
A: > 12.5 µM

Q: For COc1cc2c(cc1OC)C1=NN(C(=O)Nc3c(C)cccc3C)C(c3ccccc3Cl)C1C2 (stereo unspecified), which MIC is on record?
A: 12.5 µM (≈ 5.95 µg/mL)

Q: Which MIC does the source give for COc1cc2c(cc1OC)C1=NN(C(=O)Nc3c(C)cccc3C)C(c3ccc(F)cc3)C1C2 (stereo unspecified) here?
A: 10 µM (≈ 4.6 µg/mL)

Q: Which MIC does the source give for COc1ccc(C2C3Cc4cc(OC)c(OC)cc4C3=NN2C(=O)Nc2c(C)cccc2C)cc1OC (stereo unspecified) here?
A: > 12.5 µM

Q: Which MIC does the source give for COc1cc2c(cc1OC)C1=NN(C(=O)Nc3c(C)cccc3C)C(c3ccccc3)C1C2 (stereo unspecified) here?
A: > 12.5 µM

Q: COc1ccc(C2C3Cc4cc(OC)c(OC)cc4C3=NN2C(=O)Nc2c(C)cccc2C)cc1 (stereo unspecified) was tested. Which MIC did it give?
A: > 12.5 µM

Q: With COc1cc2c(cc1OC)C1=NN(C(N)=S)C(c3ccncc3)C1C2 (stereo unspecified) as the compound, how does the MIC read?
A: 10 µM (≈ 3.54 µg/mL)

Q: COc1cc2c(cc1OC)C1=NN(C(N)=S)C(c3ccccc3Cl)C1C2 (stereo unspecified) was tested. Which MIC did it give?
A: 10 µM (≈ 3.88 µg/mL)

Q: With COc1cc2c(cc1OC)C1=NN(C(N)=S)C(c3ccc(F)cc3)C1C2 (stereo unspecified) as the compound, how does the MIC read?
A: 6.25 µM (≈ 2.32 µg/mL)

Q: With COc1ccc(C2C3Cc4cc(OC)c(OC)cc4C3=NN2C(N)=S)cc1OC (stereo unspecified) as the compound, how does the MIC read?
A: 12.5 µM (≈ 5.17 µg/mL)

Q: Which MIC does the source give for COc1cc2c(cc1OC)C1=NN(C(N)=S)C(c3ccccc3)C1C2 (stereo unspecified) here?
A: 12.5 µM (≈ 4.42 µg/mL)

Q: COc1ccc(C2C3Cc4cc(OC)c(OC)cc4C3=NN2C(N)=S)cc1 (stereo unspecified) was tested. Which MIC did it give?
A: > 12.5 µM

Q: How did the MIC turn out when NNC(=O)c1ccncc1 [ISONIAZID] was run?
A: 12.5 µM (≈ 1.71 µg/mL)

Q: Which MIC does the source give for CO[C@H]1/C=C/O[C@@]2(C)Oc3c(C)c(O)c4c(O)c(c(/C=N/N5CCN(C)CC5)c(O)c4c3C2=O)NC(=O)/C(C)=C\C=C\[C@H](C)[C@H](O)[C@@H](C)[C@@H](O)[C@@H](C)[C@H](OC(C)=O)[C@@H]1C [RIFAMPIN] here?
A: 3.12 µM (≈ 2.57 µg/mL)
